Values after ≈ are worked out from the molar mass of the structure shown. Read-outs that look alike come from different tables or passages of the source.
Tests used:
CHI Log D procedure = format: physicochemical
Solubility in PBS = format: physicochemical
In short: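 Solubility is derived from HPLC peak areas: the ratio of the PBS supernatant peak to a 50 μM DMSO peptide peak, times 50 uM.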

[1] = molecular target: T1, beta-catenin/TCF4 engagement (Homo sapiens, UniProt P35222); test: Nano-BRET target engagement assay (B-cat-Halo & TCF4-Luc in HEK293 cells); format: cell-based
T1 construct: expressed in transfected cells; host or cells: HEK293
T1 sequence (P35222 1-781): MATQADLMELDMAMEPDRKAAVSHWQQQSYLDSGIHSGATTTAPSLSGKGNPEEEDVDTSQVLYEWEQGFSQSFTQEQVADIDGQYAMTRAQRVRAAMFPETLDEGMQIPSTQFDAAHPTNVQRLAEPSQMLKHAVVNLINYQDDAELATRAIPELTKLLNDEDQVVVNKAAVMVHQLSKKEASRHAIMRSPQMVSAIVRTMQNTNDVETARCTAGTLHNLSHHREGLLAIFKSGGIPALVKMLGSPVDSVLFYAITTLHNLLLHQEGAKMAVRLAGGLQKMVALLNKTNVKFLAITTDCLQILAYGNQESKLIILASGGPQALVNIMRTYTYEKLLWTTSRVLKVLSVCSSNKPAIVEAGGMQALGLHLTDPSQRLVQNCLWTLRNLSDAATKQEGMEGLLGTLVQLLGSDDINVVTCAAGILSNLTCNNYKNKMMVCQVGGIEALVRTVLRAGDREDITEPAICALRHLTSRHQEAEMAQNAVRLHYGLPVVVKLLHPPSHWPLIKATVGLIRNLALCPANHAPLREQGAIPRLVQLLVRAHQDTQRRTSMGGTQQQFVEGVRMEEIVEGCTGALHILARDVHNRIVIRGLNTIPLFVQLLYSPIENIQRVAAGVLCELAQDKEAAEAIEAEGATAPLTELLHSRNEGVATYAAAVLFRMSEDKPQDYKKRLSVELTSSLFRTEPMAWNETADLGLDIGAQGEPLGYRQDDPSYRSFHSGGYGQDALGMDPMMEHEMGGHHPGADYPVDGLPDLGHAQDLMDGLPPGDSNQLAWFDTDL

[2] = molecular target: T2, full-length beta-Catenin (Uniprot ID P35222) (Homo sapiens, UniProt P35222); test: Fluorescence polarization IC50 (beta-catenin / 5FAM-TCF4 10-53 competition); format: binding
T2 construct: 10 nM full-length beta-Catenin (Uniprot ID P35222)
T2 sequence (P35222 1-781): T1 sequence (P35222 1-781)

[3] = fluorescence polarization, read-out: beta-Catenin FP IC50
[4] = fluorescence polarization, beta-catenin, read-out: FP EC50

SMILES	Solubility (Solubility in PBS) [µM]	IC50 ([2]; read-out: beta-Catenin FP IC50) [nM]	chromatographic logD (CHI Log D procedure; pH 7.4, CHI Log D)	other results
CC(=O)N1CCC[C@]12CC=CCCCC1(CCCC=CCCCCCC[C@@](C)(C(=O)N[C@@H](Cc3ccccc3)C(=O)N[C@@H](C)C(=O)N[C@@H](CCC(N)=O)C(N)=O)NC(=O)[C@H](C(C)C)NC(=O)[C@H](Cc3ccccc3)NC(=O)[C@H](C)NC(=O)[C@H](C)NC(=O)[C@H](CC(=O)O)NC(=O)[C@H](CC(=O)O)NC1=O)NC(=O)[C@H](C)NC(=O)[C@H](CC(=O)O)NC2=O (stereo partly drawn) [I-357, Ac-PL3-Asp-Ala-B5-Asp-Asp-Ala-Ala-Phe-Val-S8-Phe-Ala-Gln-NH2]	46 (≈ 76.6 µg/mL)			CHI Log D (CHI Log D procedure; pH 7.4): 1.852; inhibition at 10 µM ([1]; HEK293, 10 uM, read-out: NanoBRET % inh @ 10 uM): -5.3%
C[C@@H]1NC(=O)[C@H](C)NC(=O)[C@H](CN(CC(=O)O)CC(F)(F)F)NC(=O)[C@H](CC(=O)O)NC(=O)C2(CCCC=CCCCOC(=O)N3CC[C@@](C(=O)N[C@@H](Cc4ccsc4)C(=O)N[C@@H](Cc4csc5ccccc45)C(=O)N[C@@H](CCC(N)=O)C(N)=O)(C3)NC(=O)[C@H](CC(N)=O)NC(=O)[C@H](Cc3ccccc3)NC1=O)CCCC=CC[C@]1(CCCN1C(=O)CN=[N+]=[N-])C(=O)N[C@@H](CC(=O)O)C(=O)N[C@@H](CC(C)(C)C)C(=O)N2 (stereo partly drawn) [I-1054, AzAc-PL3-Asp-Npg-B5-Asp-TfeGA-Ala-Ala-Phe-Asn-PyrS2-3Thi-BztA-Gln-NH2]	46 (≈ 95.2 µg/mL)			chromatographic logD (CHI Log D procedure; pH 7.4): 2.19; IC50 ([1]; NanoBRET Abs IC50 (uM), absolute IC50): > 20 µM
CC(=O)N1CCC[C@]12CC=CCCCC1(CCCC=CCCCCCC[C@@](C)(C(=O)N[C@@H](Cc3ccccc3Cl)C(=O)N[C@@H](Cc3csc4ccccc34)C(=O)N[C@@H](C(N)=O)[C@H](C)O)NC(=O)[C@H](CC(C)C)NC(=O)[C@H](Cc3ccccc3)NC(=O)[C@H](C)NC(=O)[C@H](C)NC(=O)[C@H](CCC(=O)O)NC(=O)[C@H](CC(=O)O)NC1=O)NC(=O)[C@H](CC(C)(C)C)NC(=O)[C@H](CC(=O)O)NC2=O (stereo partly drawn) [I-1098, Ac-PL3-Asp-Npg-B5-Asp-Glu-Ala-Ala-Phe-Leu-S8-2ClF-BztA-dThr-NH2]	10 (≈ 18.9 µg/mL)	100	3.54	
CC(=O)N1CCC[C@]12CC=CCCCC1(CCCC=CCCCOC(=O)N3CC[C@@](C(=O)N[C@@H](Cc4ccccc4F)C(=O)N[C@@H](Cc4csc5ccccc45)C(=O)N[C@@H](CO)C(N)=O)(C3)NC(=O)[C@H](CO)NC(=O)[C@H](Cc3ccccc3)NC(=O)[C@H](C)NC(=O)[C@H](C)NC(=O)[C@H](CC(=O)O)NC(=O)[C@H](CC(=O)O)NC1=O)NC(=O)[C@H](CC1CCCCC1)NC(=O)[C@H](CC(=O)O)NC2=O (stereo partly drawn) [I-1102, Ac-PL3-Asp-Cha-B5-Asp-Asp-Ala-Ala-Phe-Ser-PyrS2-2FF-BztA-Ser-NH2]	10 (≈ 18.9 µg/mL)	16	2.39	
CC(=O)N1CCC[C@]12CC=CCCCC1(CCCC=CCCCOC(=O)N3CC[C@@](C(=O)N[C@@H](Cc4ccccc4Cl)C(=O)N[C@@H](Cc4csc5ccccc45)C(=O)N[C@@H](CO)C(N)=O)(C3)NC(=O)[C@H](CC(C)C)NC(=O)[C@H](Cc3ccccc3)NC(=O)[C@H](C)NC(=O)[C@H](C)NC(=O)[C@H](CC(=O)O)NC(=O)[C@H](CC(=O)O)NC1=O)NC(=O)[C@H](CC1CCCCC1)NC(=O)[C@H](CC(=O)O)NC2=O (stereo partly drawn) [I-1112, Ac-PL3-Asp-Cha-B5-Asp-Asp-Ala-Ala-Phe-Leu-PyrS2-2C1F-BztA-Ser-NH2]	10 (≈ 19.3 µg/mL)	40	2.72	
CC(=O)N1CCC[C@]12CC=CCCCC1(CCCC=CCCCOC(=O)N3CC[C@@](C(=O)N[C@@H](Cc4ccccc4Cl)C(=O)N[C@@H](Cc4csc5ccccc45)C(=O)N[C@@H](CO)C(N)=O)(C3)NC(=O)[C@H](CC3CCCCC3)NC(=O)[C@H](Cc3ccccc3)NC(=O)[C@H](C)NC(=O)[C@H](C)NC(=O)[C@H](CC(=O)O)NC(=O)[C@H](CC(=O)O)NC1=O)NC(=O)[C@H](CC1CCCCC1)NC(=O)[C@H](CC(=O)O)NC2=O (stereo partly drawn) [I-1113, Ac-PL3-Asp-Cha-B5-Asp-Asp-Ala-Ala-Phe-Cha-PyrS2-2C1F-BztA-Ser-NH2]	10 (≈ 19.7 µg/mL)	64	2.99	
CC(=O)N1CCC[C@]12CC=CCCCC1(CCCC=CCCCOC(=O)N3CC[C@@](C(=O)N[C@@H](Cc4ccccc4Cl)C(=O)N[C@@H](Cc4csc5ccccc45)C(=O)N[C@@H](CO)C(N)=O)(C3)NC(=O)[C@H](CC(C)C)NC(=O)[C@H](Cc3ccccc3)NC(=O)[C@H](C)NC(=O)[C@H](C)NC(=O)[C@H](CC(=O)O)NC(=O)[C@H](CC(=O)O)NC1=O)NC(=O)[C@H](Cc1cccc3ccccc13)NC(=O)[C@H](CC(=O)O)NC2=O (stereo partly drawn) [I-1116, Ac-PL3-Asp-1NapA-B5-Asp-Asp-Ala-Ala-Phe-Leu-PyrS2-2C1F-BztA-Ser-NH2]		40	2.62	Solubility (Solubility in PBS; Solubility (uM)): 13 µM (≈ 25.7 µg/mL)
CC(=O)N1CCC[C@]12CC=CCCCC1(CCCC=CCCCOC(=O)N3CC[C@@](C(=O)N[C@@H](Cc4ccccc4Cl)C(=O)N[C@@H](Cc4csc5ccccc45)C(=O)N[C@@H](CO)C(N)=O)(C3)NC(=O)[C@H](CC(C)C)NC(=O)[C@H](Cc3ccccc3)NC(=O)[C@H](C)NC(=O)[C@H](C)NC(=O)[C@H](CC(=O)O)NC(=O)[C@H](CC(=O)O)NC1=O)NC(=O)[C@H](Cc1ccc3ccccc3c1)NC(=O)[C@H](CC(=O)O)NC2=O (stereo partly drawn) [I-1117, Ac-PL3-Asp-2NapA-B5-Asp-Asp-Ala-Ala-Phe-Leu-PyrS2-2C1F-BztA-Ser-NH2]	10 (≈ 19.7 µg/mL)	55	2.61	
CC(=O)N1CCC[C@]12CC=CCCCC1(CCCC=CCCCOC(=O)N3CC[C@@](C(=O)N[C@@H](Cc4ccccc4)C(=O)N[C@@H](Cc4csc5ccccc45)C(=O)N[C@@H](CCC(N)=O)C(N)=O)(C3)NC(=O)[C@H](CC(C)C)NC(=O)[C@H](Cc3ccc(C(F)(F)F)cc3)NC(=O)[C@H](C)NC(=O)[C@H](C)NC(=O)[C@H](CC(=O)O)NC(=O)[C@H](CC(=O)O)NC1=O)NC(=O)[C@H](CC(C)(C)C)NC(=O)[C@H](CC(=O)O)NC2=O (stereo partly drawn) [I-1129, Ac-PL3-Asp-Npg-B5-Asp-Asp-Ala-Ala-4F3MeF-Leu-PyrS2-Phe-BztA-Gln-NH2]		39	2.33	Solubility (Solubility in PBS; Solubility (uM)): 29 µM (≈ 57.4 µg/mL)
CC(=O)N1CCC[C@]12CC=CCCCC1(CCCC=CCCCOC(=O)N3CC[C@@](C(=O)N[C@@H](Cc4ccsc4)C(=O)N[C@@H](Cc4csc5ccccc45)C(=O)N[C@@H](CCC(N)=O)C(N)=O)(C3)NC(=O)[C@H](CC(N)=O)NC(=O)[C@H](Cc3ccccc3)NC(=O)[C@H](C)NC(=O)[C@H](C)NC(=O)[C@H](CC(=O)O)NC(=O)[C@H](CC(=O)O)NC1=O)NC(=O)[C@H](CC(C)(C)C)NC(=O)C[C@H](CC(=O)O)NC2=O (stereo partly drawn) [I-1159, Ac-PL3-RbGlu-Npg-B5-Asp-Asp-Ala-Ala-Phe-Asn-PyrS2-3Thi-BztA-Gln-NH2]			1.88	IC50 [2, 3]: 61 nM; Solubility (Solubility in PBS; Solubility (uM)): 45 µM (≈ 86.9 µg/mL)
CC(=O)N1CCC[C@]12CC=CCCCC1(CCCC=CCCCCCC[C@@](C)(C(=O)N[C@@H](Cc3ccsc3)C(=O)N[C@@H](Cc3csc4ccccc34)C(=O)N[C@@H](CCC(N)=O)C(N)=O)NC(=O)[C@H](CC(N)=O)NC(=O)[C@H](Cc3ccccc3)NC(=O)[C@H](C)NC(=O)[C@H](C)NC(=O)[C@H](CC(=O)O)NC(=O)[C@H](CC(=O)O)NC1=O)NC(=O)[C@H](CC(C)(C)C)NC(=O)C[C@H](CC(=O)O)NC2=O (stereo partly drawn) [I-1163, Ac-PL3-RbGlu-Npg-B5-Asp-Asp-Ala-Ala-Phe-Asn-S8-3Thi-BztA-Gln-NH2]	48 (≈ 90.7 µg/mL)			IC50 [2, 4]: 691 nM; IC50 [2, 3]: 691 nM; CHI Log D (CHI Log D procedure; pH 7.4): 2.059
CC(=O)N1CCC[C@]12CC=CCCCC1(CCCC=CCCCCCC[C@@](C)(C(=O)N[C@@H](Cc3ccsc3)C(=O)N[C@@H](Cc3csc4ccccc34)C(=O)N[C@@H](CCC(N)=O)C(N)=O)NC(=O)[C@H](CC(N)=O)NC(=O)[C@H](Cc3ccccc3)NC(=O)[C@H](C)NC(=O)[C@H](C)NC(=O)[C@H](CC(=O)O)NC(=O)[C@H](CC(=O)O)NC1=O)NC(=O)[C@H](CC(C)(C)C)NC(=O)C[C@H](CC(=O)O)NC2=O (stereo partly drawn) [I-1164, Ac-PL3-RbGlu-Npg-B5-Asp-Asp-Ala-Ala-Phe-Asn-S8-3Thi-BztA-Gln-NH2]	50 (≈ 94.5 µg/mL)			IC50 [2, 4]: 162 nM; IC50 [2, 3]: 162 nM; CHI Log D (CHI Log D procedure; pH 7.4): 2.13

— patent publication US20240116985A1, “STAPLED PEPTIDES AND METHODS THEREOF” (priority 2020, published 2024)
